Assay results published in ChEMBL document CHEMBL6120935, “Multifunctional Molecular Hybrids Photoreleasing Nitric Oxide: Advantages, Pitfalls, and Opportunities” (J Med Chem, 2024).

Test: n-Octanol/PBS partition coefficient, logP of compound at pH 7.4 incubated for 4 hrs under shaking condition by UV spectrophotometric analysis
Format: physicochemical

SMILES | logD at 4 h
O=C(CCCCC[P+](c1ccccc1)(c1ccccc1)c1ccccc1)NCCCNc1ccc([N+](=O)[O-])c(C(F)(F)F)c1 | 2.39
CC(=O)NCCCNc1ccc([N+](=O)[O-])c(C(F)(F)F)c1 | 2.03
O=C(CCCCCCCCC[P+](c1ccccc1)(c1ccccc1)c1ccccc1)NCCCNc1ccc([N+](=O)[O-])c(C(F)(F)F)c1 | 3.24

Other lines, results leading:

logD at 4 h | SMILES
2.78 | O=C(CCCCCCCC[P+](c1ccccc1)(c1ccccc1)c1ccccc1)NCCCNc1ccc([N+](=O)[O-])c(C(F)(F)F)c1
1.99 | O=C(CC[P+](c1ccccc1)(c1ccccc1)c1ccccc1)NCCCNc1ccc([N+](=O)[O-])c(C(F)(F)F)c1
